Measurements taken from patent US20150159167A1, “Plants Tolerant to HPPD Inhibitor Herbicides” (Bayer CropScience AG, priority 2009, published 2015).
“And” between values parts separate entries of the source, which are not always exact repeats. Equal entries are not always repeated.

Key:
[1] = tested on: T0 tobacco plants containing FMP38t; test: Response of T0 tobacco plants expressing the FMP38 HPPD to tembotrione; format: in vivo, Nicotiana tabacum; details: 100 g AI/ha, two weeks after the treatment
Excerpt: As an example, rooted plants containing the T-DNA PromCaMV35S-OTP-HIS6-FMP38t-TerCaMV35S, will be transferred to the greenhouse under standard growth conditions. Following a period of acclimation of two weeks, the T0 plants will be treated with a mixture containing 100 g tembotrione/ha prepared from a WP20 (wettable powder 20%) formulation supplemented with ammonium sulfate and methyl ester raps oil. Two weeks after the treatment, the symptoms due to the application of the herbicides will be evaluated. The plants are classified in four categories. The treated plants evaluated as “0” are looking like the untreated tobacco plants. The plants evaluated as “1” display temporarily light bleaching phenotype due to the application of the herbicides. The plants evaluated as “2” display permanent light to strong bleaching symptoms. Finally the plants evaluated as “3” are looking like wild type tobacco plants submitted to the same treatment.

[2] = target: Synechococcus sp. HPPD "SEQ ID No. 5"; test: HPLC assay of HPPD activity, in vitro kinetic properties; format: biochemical; details: 2 mM HPP
Description: Km, Vmax, and kcat values for different HPPD enzyme preparations and Ki, K1=Kon, and K−1=Koff for different HPPD inhibitors were determined using a HPLC assay for measurements of HPPD activity. […] All assays were started by the addition of HPPD enzyme to the assay mixture and stopped at a series of times between 0 and 240 s by addition of 200 μl of the reaction mixture to reaction assay tubes containing 20 μl 10% perchloric acid. Precipitated protein was pelleted by a 5 minute centrifugation at 10,000 g. […] A standard set of concentrations of HGA were used to provide a standard curve in order to calibrate the 292 nm absorbance of the HGA peak versus HGA concentration.
For Km and Vmax value determinations the initial rates of the HPPD reaction at different substrate concentrations were determined from plots of HGA formed versus time and fitted to the Michaelis-Menten equation for unireactant enzymes using the ID Business Solutions Ltd. (idbs.com) XLfit software suite. For the determination of Ki, K1=Kon, and K=−1=Koff values the time-courses of the HPPD reaction at different inhibitor concentrations were fitted to the equations for Mechanism A, competitive inhibition, for tight-binding inhibitors (Cha, S. (1975) Tight-binding inhibitors-I. Kinetic behaviour. Biochemical Pharmacology 24, 2177-2185) using the ID Business Solutions Ltd. XLfit software suite
In below given table 1, “Km” (Michaelis-Menten constant) means the kinetic parameter that is used to characterise an enzyme, and it is defined as the concentration of substrate that permits half maximal rate of the reaction. Km is further defined as the substrate concentration at which the reaction rate reaches half of its maximum value (Vmax/2) where Vmax has the meaning of being the maximum velocity of the reaction.
Kon=K1 equals the association rate constant of the […] binding and Koff=K−1 equals the rate constant of the enzyme-inhibitor complex dissociation. Ki defines the inhibition constant.

[3] = tested on: Synechococcus sp. HPPD "SEQ ID No. 5"; test: HPPD activity in presence of HPPD inhibitors (pI50, % inhibition); format: biochemical
Excerpt: In this content, pI50-value means the log value of the concentration of inhibitor necessary to inhibit 50% of the enzyme activity in molar concentration.

[4] = tested on: tobacco calli containing HPPD SEQ ID No. 7 (Synechococcus sp.); test: Rooting of calli on media with tembotrione; format: cell-based, Nicotiana tabacum; details: 6 to 12 weeks
Description: The leaf disks were co-cultivated for 2 days with Agrobacterium tumefaciens cells containing either the binary vector FMP38ebv or AtHPPDbv. Then the leaf disks were transferred to a media allowing the regeneration of shoots for 6 weeks on MS (Musharige and Skoog, (1962), Physiol Plant 15(3): 473-497) media supplemented with BAP ([…]; Benzylaminopurine), carbenicillin ([…]), cefotaxine ([…]), kanamycin (75 mg/mL) and tembotrione (10^−6 M)
Regenerated calli were transferred on media to induce the development of roots for 6 to 12 weeks: MS (1/2), supplemented with carbenicillin (250 mg/mL), cefotaxine (250 mg/mL), kanamycin (75 mg/mL), and tembotrione (10^−6 M).
Regenerated shoot calli from a cell transformed with a nucleic acid sequence encoding an HPPD comprising SEQ ID No. 11 (Arabidopsis thaliana) or SEQ ID No. 7 (Synechococcus sp.) were transferred to a media inducing root growth which media was further supplemented with the HPPD inhibitor tembotrione for 6 to 12 weeks.

[5] = tested on: T1 tobacco plants containing FMP38e (Synechococcus sp. HPPD FMP38); test: Glasshouse trial, herbicidal damage after spray; format: in vivo, Nicotiana tabacum; details: 7 DAT, 100 gAI/ha spray
Description: T0 Tobacco plants containing either the gene from Arabidopsis coding for HPPD or the gene FMP38e from Synechococcus sp. coding for FMP38 HPPD, mentioned above (Example3), were transferred to the glasshouse (28/20° C.), to develop further and produce seeds. Those seeds were harvested and put on soil (ED73 mixed with sand and osmocote Pro) to germinate in the glasshouse (28/20° C.). Three to four weeks later, plantlets were transferred to single pots containing the soil mentioned above. Two weeks later, plants of a size 4-6 cm diameter were sprayed with either • tembotrione at 100 gAI/ha prepared from a WP20 (wettable powder 20%) formulation supplemented with ammonium sulfate and methyl ester raps oil, or • isoxaflutole at 100 gAI/ha prepared from a WP20 formulation supplemented with ammonium sulfate and methyl ester raps oil, or • “blind formulation” made from a WP20 formulation without active ingredient (AI) supplemented with ammonium sulfate and methyl ester raps oil, and were then transferred to a growth chamber with adequate light conditions (20000 Lux). […]

CS(=O)(=O)c1ccc(C(=O)C2C(=O)CCCC2=O)c(Cl)c1COCC(F)(F)F [Tembotrione, 2-[2-chloro-4-(methylsulfonyl)-3-[(2,2,2,-tri-fluoroethoxy)methyl]benzoyl]-1,3-cyclo-hexanedione]
number of plants in category 0 (looking like the untreated tobacco plants) [1]: 1
number of plants in category 1 (temporarily light bleaching phenotype) [1]: 1
number of plants in category 3 (looking like wild type tobacco plants submitted to the same treatment) [1]: 14
Ki [2]: 1.2 µM
k1 (Kon) [2]: 41000 M⁻¹ s⁻¹
k−1 (Koff) [2]: 0.05 s⁻¹
pI50 ([3]; 2 mM HPP, 3 minutes incubation): 5.6
percentage of inhibition ([3]; 5.0 × 10^−6 M inhibitor, compared to activity in absence of inhibitor): 79%
% Elongation & rooting on 10^−6 M tembotrione [4]: 80%
% injury ([5]; line 34, one value per plant): 30%
% injury ([5]; line 39, one value per plant): 0% and 5%
